≈ marks a conversion by molar mass, not a printed value. Where two headings read alike, the source gives them in different places. Each block holds one compound with its values, some of them ahead of it.
Legend:
[1] = test system: Staphylococcus aureus; assay: MIC by broth microdilution, antibiotics with and without ALAFAC; format: cell-based; details: for MIC: Staphylococcus aureus
Experimental: (§1) Methodology: Minimal inhibitory concentrations (MICs) were determined in 96-well microtiter plates using the microdilution method according to approved standards of the CLSI except that Todd-Hewitt medium supplemented with 0.5% yeast extract, which yields reproducible MIC results was used as the test medium for S. pneumoniae. For the remaining species Mueller-Hinton medium was used as indicated by the CLSI standard. Each well contained two-fold dilutions of antibiotic, was seeded with a final bacterial concentration of 10^5 CFU/mL, and was incubated for 18 h at 37° C. in a Synergy II microplate reader (Biotek, Winooski, Vt.) where the OD600 was recorded every 5 minutes to monitor bacterial growth. The MIC was defined as the lowest concentration of antimicrobial agent solution at which no increase in OD600 was detected.
In vitro susceptibility tests. Minimal inhibitory concentrations (MICs) were determined in 96-well microtiter plates using the microdilution method according to approved standards of the CLSI as described previously. However, rather than Mueller-Hinton broth, Tryptic soy broth (TSB) was used for susceptibility testing as it is the common media used for Staphylococcal growth, and as it has shown more consistent results for a variety of antimicrobials when tested against Staphylococci. […] A two-fold dilution series of antibiotics in triplicate and in the presence or absence of ALAFAC was prepared in 96 well microtiter plates, and each well was seeded with a final bacterial concentration of 10^5 CFU/mL, and was incubated for 24 h at 37° C. in a Synergy 2 microplate reader (Biotek, Winooski, Vt.) where the Optical Density at 600 nm (OD600) was recorded every 5 minutes to monitor bacterial growth. The MIC was defined as the lowest concentration of antimicrobial agent solution where no increase in OD600 was detected.

[2] = test system: NRS 123 Staphylococci; assay: Membrane potential, DiBAC4(3) fluorescence; format: cell-based, Staphylococcus aureus; details: Ruthenium Red, Amiloride
Experimental: Assessing membrane potential. Staphylococci grown to late log phase in TSB were pelleted by centrifugation at 2,400×g for 10 minutes and washed twice by resuspension in PBS. The bacterial pellet was resuspended in PBS to half of the original volume and energized with 50 mM glucose for 15 minutes at 37° C. To measure membrane potential of the staphylococcal membrane, 500 nM DiBAC4(3) (bis-(1,3-dibutylbarbituric acid) trimethine oxonol; Molecular Probes, Eugene, Oreg., USA) were added. […] The plate was then placed immediately into a pre-warmed (37° C.) Synergy 2 Multi-Mode Microplate Reader (BioTek) where fluorescence readings from DiBAC4(3) (485/20 nm excitation, 528/20 nm emission) were taken every minute for one hour. The difference in fluorescence intensity between the untreated control and the ALAFAC-treated sample was calculated for the “no inhibitor” samples and for the “inhibitor” samples using the values after 60 minutes. The fluorescence intensity difference for the “inhibitor” samples was then expressed as fold change of the intensity compared with the ALAFAC alone (“no inhibitor”) sample, providing the degree of depolarization compared to the “ALAFAC alone” sample.

[3] = test system: NRS 384 Staphylococci; assay: Intracellular pH measurement (BCECF-AM); format: cell-based, Staphylococcus aureus; details: ALAFAC 100 μg/mL (6 μM), RuR 30 μM, Amiloride 1 mM
From the text: Intracellular pH measurement. A reported protocol for intracellular pH (pHi) measurement was modified and optimized for S. aureus by testing the effect of various dye concentrations and staining times on the measured fluorescence of S. aureus isolate NRS 384 grown to mid-log phase. Cell samples were subjected to increasing concentrations of the membrane-permeant acetoxymehtyl (AM) ester derivative of the dual-excitation ratiometric pH indicator dye BCECF (2′,7′-bis-(2-carboxyethyl)-5-(and-6)-carboxyfluorescein), for 30 minutes at 30° C. Fluorescence was measured as a ratio of fluorescence at 530 nm with dual wavelength excitation at 490 and 440 nm and calibration curves were established for each independent experiment. After testing a number of loading concentrations we observed that the fluorescence ratios remains generally constant when concentrations above 20 μM was used. Therefore 25 μM BCECF-AM was used for all experiments. The optimized staining time, 30 minutes, was determined using the same criteria and was used for all experiments. After loading, the cells were washed twice in PBS by centrifugation and the resulting pellet was resuspended in PBS to the original volume and ALAFAC and ALAFAC/antibiotic combinations were added. CCCP was added as a positive control. CCCP is a lipophilic weak acid that is soluble in the lipid domain of the membrane in both the protonated and deprotonated form. This allows it to act as a protonophore causing an influx of H^+ into the cytoplasm, dissipating both the electrical potential and the H^+ gradient across the inner membrane. For each experiment calibration was performed where cells were resuspended in high [K^+] buffers at different pH values ranging from 6.5 to 8.0.

[4] = test system: Streptococcus pneumoniae; assay: MIC by broth microdilution, antibiotics with and without ALAFAC; format: cell-based; details: Streptococcus pneumoniae, agent alone, read-out: MIC
Experimental: as §1
In vitro susceptibility tests. Minimal inhibitory concentrations (MICs) were determined in 96-well microtiter plates using the microdilution method according to approved standards of the CLSI except that Todd-Hewitt medium supplemented with 0.5% yeast extract, which yields reproducible MIC results was used as the test medium for S. pneumoniae. MICs for A. baumanni, and M. catarrhalis were determined in MH media. Two-fold dilutions of a starting antibiotic concentration was added in triplicate into microtiter plate wells (in 96-well plates), were seeded with a final bacterial concentration of ˜10^5 colony forming units (CFU)/mL, and was incubated for 18 h in ambient air at 37° C. in a Synergy II microplate reader (Biotek, Winooski, Vt.) where the OD600 was recorded every 5 minutes to monitor bacterial growth. The MIC was defined as the lowest concentration of antimicrobial agent solution at which no increase in OD600 was detected.

[5] = test system: Staphylococcus aureus; assay: Minimal bactericidal concentration (MBC) from MIC plates; format: cell-based; details: Staphylococcus aureus
From the text: The MBC was defined as the lowest concentration of antimicrobials yielding colony counts <0.1% (3 log10 reduction) of the initial inoculum (as determined by colony counts from the growth control well immediately after inoculation) as described.

[6] = test system: Streptococcus pneumoniae; assay: Short-time kill assay on planktonic cultures; format: cell-based; details: for Minimum antibiotic concentration for bactericidal (>3 log10) activity, planktonic: within 4-6 hours, antibiotic alone; for Bactericidal activity (FIG. 1): 1 hour at 37° C., fatty acids: concentration required to kill versus that associated with the ALAFAC-complex
Experimental: Methodology: In late logarithmic growth phase, the bacteria were harvested by centrifugation at 12,000×g for 10 minutes and resuspended in phosphate-buffered saline (PBS; […], […], […], pH 7.4). Appropriate dilutions of the bacteria were suspended in PBS and treated with indicated concentrations of ALAFAC and/or antibiotics for various times. The effect on bacterial viability was assessed by plating serial dilutions of bacterial sample on tryptic soy agar plates containing 5% sheep blood (viable counts) and determining viable colony forming units after overnight growth at 37° C.
Short-time kill assays. In late logarithmic growth phase, the bacteria were harvested by centrifugation at 12,000×g for 10 minutes and resuspended in phosphate-buffered saline (PBS; 30 mM Na2HPO4, 10 mM KH2PO4, […], pH 7.4). Appropriate concentrations of the bacteria (around 10^8 colony forming units per ml) were suspended in PBS and treated with indicated concentrations of ALAFAC and/or antibiotics for various times. The effect on bacterial viability was assessed by plating serial dilutions of bacterial sample on tryptic soy agar plates containing 5% sheep blood (viable counts) and determining viable CFUs after overnight growth at 37° C.

[7] = test system: Streptococcus pneumoniae biofilms; assay: Static biofilm model, viable counts; format: cell-based; details: for Minimum antibiotic concentration for bactericidal (>3 log10) activity on biofilms: within 4-6 hours, antibiotic alone
Experimental: Methodology: Pneumococci were grown statically in CDM and S. aureus were grown in trypic soy medium to mid-logarithmic phase (OD600=0.5), washed, and resuspended in fresh pre-warmed medium to a density of 2×10^4 CFU in 500 μl volume, and suspensions were used to seed sterile round glass coverslips in the bottom of polystyrene 24-well plates with or without a substratum of confluent H292 epithelial cells. Biofilms were cultured at 34° C. in 5% CO2 for indicated times with change of culture media every 12 hours and to assess biomass and antibiotic resistance by viable counts (as described).
Biofilms were then washed in PBS and detached by scraping the surface in the presence of 100 μL PBS followed by a rinse with 100 μL PBS. Collected cells were sonicated in a sonication water bath for 2 s followed by vortexing twice for 20 seconds at high speed and the dispersed biofilm cells were used to determine viable CFUs per ml from diluted samples plated and grown on blood agar.
Static Biofilm Model. Pneumococci were grown in CDM to mid-logarithmic phase (OD600=0.5), washed, and resuspended in fresh pre-warmed medium to a density of 2×10^4 CFUs in 500 μl volume, and suspensions were used to seed sterile round glass coverslips in the bottom of polystyrene 24-well plates with a substratum of confluent H292 epithelial cells as described. Biofilms were cultured at 34° C. in 5% CO2 for indicated times with change of culture media every 12 hours and used for SEM studies or to assess biomass and antibiotic resistance by viable plate counts.
Biofilms were then washed in PBS, dispersed by sonication, and collected by pipetting in 100 μL PBS followed by a rinse with 100 μL PBS. Collected cells were then vortexed twice for 20 seconds at high speed and the dispersed biofilm cells were used to determine viable CFUs per ml from diluted samples plated and grown on blood agar. Results are reported as the total number of CFUs per biofilm.

[8] = test system: Staphylococcus aureus biofilms; assay: Static biofilm model, viable counts; format: cell-based; details: NRS 1 (VISA) and NRS 384 (VSSA) biofilms; 24 hours; vancomycin 32 μg/mL (21 μM) alone or with ALAFAC
Experimental: Static Biofilm Model. Staphylococci were grown in TSB to mid-logarithmic phase (OD600=0.5), washed, and resuspended in fresh pre-warmed medium to a density of 2×10^4 CFU in 500 μl volume, and suspensions were used to seed polystyrene 24-well plates. Bacteria were cultured at 37° C. for 12 hours, after which biofilms were washed with PBS to eliminate planktonic bacteria and were exposed to TSB with indicated concentrations of ALAFAC and/or antibiotics for 24 hours at 37° C. Biofilms were then washed in PBS, sonicated and detached by scraping the surface in the presence of 100 μL PBS followed by a rinse with 100 μL PBS. Collected cells were vortexed twice for 20 seconds at high speed and the dispersed biofilm cells were first observed by microscopy to ensure proper dispersion and then diluted in a 10-fold dilution series where 100 μl of each dilution was plated on blood agar plates to determine viable CFUs per ml after overnight growth at 37° C. Colony counts from plates carrying 20-200 colonies were used to determine the viable counts and are reported as the total number of colony-forming units per biofilm.

- Effect of inhibitor on ALAFAC antibiotic potentiation in MIC assay ([1]; NRS 123, methicillin + ALAFAC, Ruthenium Red 30 μM, Amiloride 1 mM): completely abolished
SMILES: N=C(N)NC(=O)c1nc(Cl)c(N)nc1N [Amiloride]
- Effect of inhibitor on ALAFAC-associated membrane depolarization [2]: completely abolished
- Transmembrane proton gradient (intracellular pH) [3]: did not fully inhibit

- MIC ([4]; S. pneumoniae D39): 0.03 µg/mL
- MIC ([4]; S. pneumoniae JY53 (erythromycin-resistant)): 3 µg/mL
- MIC ([1]; S. aureus NRS123, antibiotic alone, read-out: MIC): 0.5 µg/mL
- MIC ([1]; S. aureus NRS384, antibiotic alone, read-out: MIC): 16 µg/mL
SMILES: CC[C@H]1OC(=O)[C@H](C)[C@@H](O[C@H]2C[C@@](C)(OC)[C@@H](O)[C@H](C)O2)[C@H](C)[C@@H](O[C@@H]2O[C@H](C)C[C@H](N(C)C)[C@H]2O)[C@](C)(O)C[C@@H](C)C(=O)[C@H](C)[C@@H](O)[C@]1(C)O [Erythromycin, erythromycin]
- MBC ([5]; NRS123, S. aureus NRS123, antibiotic alone, read-out: MBC): 16 µg/mL (≈ 21.8 µM)
- MBC ([5]; NRS384, S. aureus NRS384, antibiotic alone, read-out: MBC): > 256 µg/mL
- Short-time killing ([6]; D39, 4 hours, ALAFAC 50 μg/ml, erythromycin 200 μg/ml, alone or combined, 7.2 log10 inoculum): insignificant bactericidal activity
- Bactericidal activity alone ([6]; D39 and EF3030, 1 hour, penicillin G up to 5,000 μg/ml, erythromycin up to 1,000 μg/ml): lacked any bactericidal activity
- Minimum antibiotic concentration for bactericidal (>3 log10) activity, planktonic ([6]; S. pneumoniae D39): >1,000 μg/ml
- Minimum antibiotic concentration for bactericidal (>3 log10) activity, planktonic ([6]; S. pneumoniae JY53): >1000 μg/ml
- Biofilm killing ([7]; D39 48 h biofilm (8.7 log10), erythromycin 500 μg/ml alone or with 250 μg/ml ALAFAC): no bactericidal effects
- Minimum antibiotic concentration for bactericidal (>3 log10) activity on biofilms ([7]; S. pneumoniae D39 biofilm): >1000 μg/ml
- Minimum antibiotic concentration for bactericidal (>3 log10) activity on biofilms ([7]; S. pneumoniae JY53 biofilm): >1000 μg/ml

SMILES: CN[C@H](CC(C)C)C(=O)N[C@H]1C(=O)N[C@@H](CC(N)=O)C(=O)N[C@H]2C(=O)N[C@H]3C(=O)N[C@H](C(=O)N[C@H](C(=O)O)c4cc(O)cc(O)c4-c4cc3ccc4O)[C@H](O)c3ccc(c(Cl)c3)Oc3cc2cc(c3O[C@@H]2O[C@H](CO)[C@@H](O)[C@H](O)[C@H]2O[C@H]2C[C@](C)(N)[C@H](O)[C@H](C)O2)Oc2ccc(cc2Cl)[C@H]1O [Vancomycin, vancomycin]
- MIC ([1]; NRS1): 8 µg/mL
- MIC ([1]; NRS384): 1 µg/mL
- MBC ([5]; NRS1): 32 µg/mL (≈ 22.1 µM)
- MBC ([5]; NRS384): 16 µg/mL (≈ 11 µM)
- Biofilm killing [8]: almost complete insensitivity

SMILES: CCCCC/C=C\C/C=C\CCCCCCCC(=O)O [linoleic acid]
- Bactericidal activity (FIG. 1) ([6]; S. pneumoniae D39): considerably higher

SMILES: CCCCCCCC/C=C\CCCCCCCC(=O)O [oleic acid]
- Bactericidal activity (FIG. 1) ([6]; S. pneumoniae D39): considerably higher
